Data on five molecules can be found in ChEMBL document CHEMBL4811279, “N-Substituted pyrrolopyrimidines and purines as p90 ribosomal S6 protein kinase-2 (RSK2) inhibitors” (Bioorg Med Chem, 2021).

As usually defined, the inhibition is the percentage by which the read-out fell short of the control.

Each structure is given as a SMILES string.

Sequence of Ribosomal protein S6 kinase alpha-3 (Homo sapiens) (P51812 whole entry): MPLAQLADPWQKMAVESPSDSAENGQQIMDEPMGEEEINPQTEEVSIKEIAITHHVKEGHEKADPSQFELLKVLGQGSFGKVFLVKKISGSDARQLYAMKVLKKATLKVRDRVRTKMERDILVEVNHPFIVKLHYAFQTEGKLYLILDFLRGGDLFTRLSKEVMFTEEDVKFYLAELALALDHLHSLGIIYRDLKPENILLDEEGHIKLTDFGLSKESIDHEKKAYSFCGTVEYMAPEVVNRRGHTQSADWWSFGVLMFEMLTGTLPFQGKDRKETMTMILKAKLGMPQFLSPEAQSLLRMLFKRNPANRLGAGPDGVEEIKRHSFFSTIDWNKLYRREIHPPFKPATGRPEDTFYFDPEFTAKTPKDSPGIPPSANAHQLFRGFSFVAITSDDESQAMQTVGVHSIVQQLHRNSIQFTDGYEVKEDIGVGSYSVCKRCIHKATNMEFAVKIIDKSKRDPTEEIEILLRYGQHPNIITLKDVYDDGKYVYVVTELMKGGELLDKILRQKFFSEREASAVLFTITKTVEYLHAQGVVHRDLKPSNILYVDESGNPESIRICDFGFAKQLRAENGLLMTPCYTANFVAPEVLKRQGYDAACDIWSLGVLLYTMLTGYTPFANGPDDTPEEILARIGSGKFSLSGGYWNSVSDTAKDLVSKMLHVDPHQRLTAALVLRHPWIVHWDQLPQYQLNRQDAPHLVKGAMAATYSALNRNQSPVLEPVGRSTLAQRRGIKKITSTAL

This test addresses Ribosomal protein S6 kinase alpha-3 (Homo sapiens) (UniProt P51812). Put plainly: Inhibition of RSK2 (unknown origin) using Ulight-rpS6 as substrate at 10 uM incubated for 1 hr in presence of ATP by TR FRET assay. In general terms: Time-resolved FRET reads energy transfer from a long-lived donor to a nearby acceptor.
As to `Oc1c(F)cc(Nc2ncc3ncn(-c4ccc(-c5ccccc5)cc4)c3n2)cc1F`, the inhibition was 49%. For `Oc1c(F)cc(Nc2ncc3ncn(-c4ccc(OCc5ccccc5)cc4)c3n2)cc1F`, the inhibition was found to be 42%.

With `Oc1c(F)cc(Nc2ncc3cc[nH]c3n2)cc1F`, the inhibition is 77%. The same measure for `Oc1c(F)cc(Nc2ncc3ncn(-c4cccc(OCc5ccccc5)c4)c3n2)cc1F`: 63%; for `Oc1c(F)cc(Nc2ncc3nc[nH]c3n2)cc1F`: 67%.
